Laboratory results from patent US9499550B2 (BRISTOL-MYERS SQUIBB COMPANY, priority 2012, dated 2016).
Like-named read-outs stand apart in the source and are kept apart here.

Columns and labels:
[1] = test system: HCV genotype 1a (H77 strain) replicon in HUH-7 cells; experiment: HCV replicon luciferase reporter assay, genotype 1a; type: cell-based; conditions: Hepatitis C virus, Huh-7, 72 h, 3 days incubation
Summary of the method: (§1)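 Replicon inhibition for both genotypes was measured as Renilla luciferase signal (EnduRen, 7.5 μM final, 2 h) after 3-day, 37° C exposure of replicon-bearing HUH-7 cells in 4% FCS DMEM, 0.5% DMSO. The 1b construct carries S1179I; the 1a H77 construct carries P1496L and S2204I. Twenty-point, 3-fold dilutions were fitted four-parametrically for EC50, and CC50 was taken from multiplexed Cell Titer-Blue.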

[2] = test system: HCV genotype 1b (Con1) replicon in HUH-7 cells; experiment: HCV replicon luciferase reporter assay, genotype 1b; type: cell-based; conditions: Hepatitis C virus, Huh-7, 72 h, 3 days incubation
Summary of the method: as §1

[3] = HCV genotype 1a replicon luciferase, read-out: LE_1a (EC50, range)
[4] = HCV genotype 1b replicon luciferase, read-out: LE_1b (EC50, range)
[5] = HCV genotype 1a replicon luciferase assay, range class, read-out: LE_1a (EC50, range)
[6] = HCV genotype 1b replicon luciferase assay, range class, read-out: LE_1b (EC50, range)
[7] = GETYPE1A, HCV genotype 1a replicon luciferase, read-out: LE_1a (EC50, range)
[8] = GETYPE1B, HCV genotype 1b replicon luciferase, read-out: LE_1b (EC50, range)

CC[C@@H]1C[C@H](C)CC/C=C\[C@@H]2C[C@@]2(C(=O)NS(=O)(=O)C2(C)CC2)NC(=O)[C@@H]2C[C@@H](Oc3nccc4cc(OC)c(F)cc34)CN2C(=O)[C@H]1NC(=O)OC(C)(C)C(F)F [Compound 5527, 1,1-difluoro-2-methylpropan-2-yl((2R,6S,7R,9R,13aS,14aR,16aS,Z)-7-ethyl-2-((7-fluoro-6-methoxyisoquinolin-1-yl)oxy)-9-methyl-14a-(((1-methylcyclopropyl)sulfonyl)carbamoyl)-5,16-dioxo-1,2,3,5,6,7,8,9,10,11,13a,14,14a,15,16,16a-hexadecahydrocyclopropa[e]pyrrolo[1,2-a][1,4]diazacyclopentadecin-6-yl)carbamate]
EC50 [1, 3]: 1.01 to 5 nM | EC50 [2, 4]: 0.51 to 1 nM

CCOc1cc2ccnc(O[C@@H]3C[C@H]4C(=O)N[C@]5(C(=O)NS(=O)(=O)C6CC6)C[C@H]5/C=C\CC[C@@H](C)C[C@@H](CC)[C@H](NC(=O)OC(C)(C)C(F)(F)F)C(=O)N4C3)c2cc1F [Compound 5407, 1,1,1-trifluoro-2-methylpropan-2-yl((2R,6S,7R,9R,13aS,14aR,16aS,Z)-14a-((cyclopropylsulfonyl)carbamoyl)-2-((6-ethoxy-7-fluoroisoquinolin-1-yl)oxy)-7-ethyl-9-methyl-5,16-dioxo-1,2,3,5,6,7,8,9,10,11,13a,14,14a,15,16,16a-hexadecahydrocyclopropa[e]pyrrolo[1,2-a][1,4]diazacyclopentadecin-6-yl)carbamate]
EC50 [1, 3]: 1.01 to 5 nM | EC50 [2, 4]: 0.51 to 1 nM

COc1ccc2c(O[C@@H]3C[C@H]4C(=O)N[C@]5(C(=O)NS(=O)(=O)C6(F)CC6)C[C@H]5/C=C\CC[C@@H](C)C[C@@H](C)[C@H](NC(=O)OC(C)C)C(=O)N4C3)nccc2c1 [Compound 4016]
EC50 [1, 3]: < 5.46 nM | EC50 [2, 4]: < 5.46 nM

COc1ccc2c(O[C@@H]3C[C@H]4C(=O)N[C@]5(C(=O)NS(=O)(=O)C6(C)CC6)C[C@H]5/C=C\CC[C@H](C)C[C@@H](C)[C@H](NC(=O)OC(C)(C)C(F)(F)F)C(=O)N4C3)nc(-c3ccc(OC(C)C)c(F)c3)cc2c1 [Compound 3077, 1,1,1-trifluoro-2-methylpropan-2-yl((2R,6S,7R,9S,13aS,14aR,16aS,Z)-2-((3-(3-fluoro-4-isopropoxyphenyl)-6-methoxyisoquinolin-1-yl)oxy)-7,9-dimethyl-14a-(((1-methylcyclopropyl)sulfonyl)carbamoyl)-5,16-dioxo-1,2,3,5,6,7,8,9,10,11,13a,14,14a,15,16,16a-hexadecahydrocyclopropa[e]pyrrolo[1,2-a][1,4]diazacyclopentadecin-6-yl)carbamate]
EC50 [1, 5]: 4.82 to 103 nM | EC50 [2, 6]: < 5.46 nM

COc1cnc(O[C@@H]2C[C@H]3C(=O)N[C@]4(C(=O)NS(=O)(=O)C5(CF)CC5)C[C@H]4/C=C\CC[C@@H](C)C[C@@H](C)[C@H](NC(=O)OC4(C(F)(F)F)CCCOC4)C(=O)N3C2)c2ccccc12 (stereo partly drawn) [Compound 1058, 3-(trifluoromethyl)tetrahydro-2H-pyran-3-yl((2R,6S,7R,9R,13aS,14aR,16aS,Z)-14a-(((1-(fluoromethyl)cyclopropyl)sulfonyl)carbamoyl)-2-((4-methoxyisoquinolin-1-yl)oxy)-7,9-dimethyl-5,16-dioxo-1,2,3,5,6,7,8,9,10,11,13a,14,14a,15,16,16a-hexadecahydrocyclopropa[e]pyrrolo[1,2-a][1,4]diazacyclopentadecin-6-yl)carbamate]
EC50 [1, 5]: < 5.46 nM | EC50 [2, 6]: < 5.46 nM

COc1ccc2c(O[C@@H]3C[C@H]4C(=O)N[C@]5(C(=O)NS(=O)(=O)C6CC6)C[C@H]5/C=C\CC[C@@H](C)C[C@@H](C)[C@H](NC(=O)O[C@H](C)C(F)(F)F)C(=O)N4C3)nc(-c3ccc(OC(C)C)cn3)cc2c1 [Compound 5207, (R)-1,1,1-trifluoropropan-2-yl ((2R,6S,7R,9R,13aS,14aR,16aS,Z)-14a-((cyclopropylsulfonyl)carbamoyl)-2-((3-(5-isopropoxypyridin-2-yl)-6-methoxyisoquinolin-1-yl)oxy)-7,9-dimethyl-5,16-dioxo-1,2,3,5,6,7,8,9,10,11,13a,14,14a,15,16,16a-hexadecahydrocyclopropa[e]pyrrolo[1,2-a][1,4]diazacyclopentadecin-6-yl)carbamate]
EC50 [1, 3]: < 5.46 nM | EC50 [2, 4]: < 5.46 nM

CC[C@@H]1C[C@H](C)CC/C=C\[C@@H]2C[C@@]2(C(=O)NS(=O)(=O)C2(C)CC2)NC(=O)[C@@H]2C[C@@H](Oc3nc4cc(OC(C)C)ccc4nc3C(F)(F)F)CN2C(=O)[C@H]1NC(=O)OC(C)(C)C(F)(F)F [Compound 4350]
EC50 ([1]; GETYPE1A, HCV genotype 1a replicon luciferase, read-out: LE_1a (EC50)): 1.49 nM | EC50 [1, 7]: 1.01 to 5 nM | EC50 ([2]; GETYPE1B, HCV genotype 1b replicon luciferase, read-out: LE_1b (EC50)): 0.88 nM | EC50 [2, 8]: 0.51 to 1 nM

COc1ccc2nc(O[C@@H]3C[C@H]4C(=O)N[C@]5(C(=O)NS(=O)(=O)C6(C)CC6)C[C@H]5/C=C\CC[C@@H](C)C[C@@H](C)[C@H](NC(=O)OC(C)(C)C)C(=O)N4C3)c(-c3ccc(OC(C)C)cc3)nc2c1 [Compound 4260, tert-butyl ((2R,6S,7R,9R,13aS,14aR,16aS,Z)-2-((3-(4-isopropoxyphenyl)-6-methoxyquinoxalin-2-yl)oxy)-7,9-dimethyl-14a-(((1-methylcyclopropyl)sulfonyl)carbamoyl)-5,16-dioxo-1,2,3,5,6,7,8,9,10,11,13a,14,14a,15,16,16a-hexadecahydrocyclopropa[e]pyrrolo[1,2-a][1,4]diazacyclopentadecin-6-yl)carbamate]
EC50 [1, 3]: 1.01 to 5 nM | EC50 [2, 4]: 1.01 to 5 nM

CC[C@@H]1C[C@H](C)CC/C=C\[C@@H]2C[C@@]2(C(=O)NS(=O)(=O)C2(C)CC2)NC(=O)[C@@H]2C[C@@H](Oc3ncc(C(N)=O)c4cc(OC)ccc34)CN2C(=O)[C@H]1NC(=O)OC(C)(C)C [Compound 4343, tert-butyl ((2R,6S,7R,9R,13aS,14aR,16aS,Z)-2-((4-carbamoyl-6-methoxyisoquinolin-1-yl)oxy)-7-ethyl-9-methyl-14a-(((1-methylcyclopropyl)sulfonyl)carbamoyl)-5,16-dioxo-1,2,3,5,6,7,8,9,10,11,13a,14,14a,15,16,16a-hexadecahydrocyclopropa[e]pyrrolo[1,2-a][1,4]diazacyclopentadecin-6-yl)carbamate]
EC50 [1, 3]: 5.01 to 35 nM | EC50 [2, 4]: 5.01 to 35 nM

CC[C@@H]1C[C@H](C)CC/C=C\[C@@H]2C[C@@]2(C(=O)NS(=O)(=O)C2(C)CC2)NC(=O)[C@@H]2C[C@@H](Oc3nc4cc(OC)ccc4nc3C(C)C)CN2C(=O)[C@H]1NC(=O)OC(C)(C)C(F)(F)F [Compound 4251]
EC50 [1, 7]: 1.01 to 5 nM | EC50 [2, 8]: 1.01 to 5 nM

[2H]C([2H])([2H])C(C)(OC(=O)N[C@@H]1C(=O)N2C[C@H](Oc3nccc4c5c(ccc34)N(C)CCO5)C[C@H]2C(=O)N[C@]2(C(=O)NS(=O)(=O)C3CC3)C[C@H]2/C=C\CC[C@@H](C)C[C@H]1C)C([2H])([2H])[2H] [Compound 5286, 1,1,1,3,3,3-hexadeutero-2-methylpropan-2-yl((2R,6S,7R,9R,13aS,14aR,16aS,Z)-14a-((cyclopropylsulfonyl)carbamoyl)-7,9-dimethyl-2-((4-methyl-3,4-dihydro-2H-[1,4]oxazino[2,3-f]isoquinolin-7-yl)oxy)-5,16-dioxo-1,2,3,5,6,7,8,9,10,11,13a,14,14a,15,16,16a-hexadecahydrocyclopropa[e]pyrrolo[1,2-a][1,4]diazacyclopentadecin-6-yl)carbamate]
EC50 [1, 3]: < 5.46 nM | EC50 [2, 4]: < 5.46 nM
